Data reported in ChEMBL document CHEMBL3046898, “Synthesis and characterization of flurbiprofen hydrazide derivatives as potential anti-HCV, anticancer and antimicrobial agents” (2013).
The source made the active and inactive calls. The rule behind the calls is not given here.

What was measured:
[1] = system: Micrococcus lylae; assay: Antibacterial activity against Micrococcus lylae at 6.25 to 200 ug/ml after 24 hrs by microwell dilution method; format: functional, organism-based
[2] = system: Pseudomonas aeruginosa; assay: Antibacterial activity against Pseudomonas aeruginosa at 6.25 to 200 ug/ml after 24 hrs by microwell dilution method; format: functional, organism-based
[3] = system: Proteus vulgaris; assay: Antibacterial activity against Proteus vulgaris at 6.25 to 200 ug/ml after 24 hrs by microwell dilution method; format: functional, organism-based
[4] = system: Escherichia coli; assay: Antibacterial activity against Escherichia coli at 6.25 to 200 ug/ml after 24 hrs by microwell dilution method; format: functional, organism-based
[5] = system: Staphylococcus cohnii; assay: Antibacterial activity against Staphylococcus cohnii at 6.25 to 200 ug/ml after 24 hrs by microwell dilution assay; format: functional, organism-based
[6] = system: Staphylococcus aureus; assay: Antibacterial activity against Staphylococcus aureus at 6.25 to 200 ug/ml after 24 hrs by microwell dilution assay; format: functional, organism-based
[7] = system: Micrococcus luteus; assay: Antibacterial activity against Micrococcus luteus at 6.25 to 200 ug/ml after 24 hrs by microwell dilution method; format: functional, organism-based
[8] = system: Aspergillus; assay: Antifungal activity against Aspergillus at 10 mg/ml after 72 hrs by disc diffusion method; format: functional, organism-based
[9] = system: Pichia membranifaciens; assay: Antifungal activity against Pichia membranifaciens at 10 mg/ml after 48 hrs by disc diffusion method; format: functional, organism-based
[10] = system: Kluyveromyces marxianus; assay: Antifungal activity against Kluyveromyces marxianus at 10 mg/ml after 48 hrs by disc diffusion method; format: functional, organism-based
[11] = system: Schwanniomyces occidentalis; assay: Antifungal activity against Schwanniomyces occidentalis at 10 mg/ml after 48 hrs by disc diffusion method; format: functional, organism-based
[12] = system: Nakaseomyces glabratus; assay: Antifungal activity against Candida glabrata at 10 mg/ml after 48 hrs by disc diffusion method; format: functional, organism-based
[13] = system: Candida parapsilosis; assay: Antifungal activity against Candida parapsilosis at 10 mg/ml after 48 hrs by disc diffusion method; format: functional, organism-based
[14] = system: Candida tropicalis; assay: Antifungal activity against Candida tropicalis at 10 mg/ml after 48 hrs by disc diffusion method; format: functional, organism-based
[15] = system: Candida albicans; assay: Antifungal activity against Candida albicans at 10 mg/ml after 48 hrs by disc diffusion method; format: functional, organism-based
[16] = system: Photorhabdus luminescens; assay: Antibacterial activity against Photorhabdus luminescens at 10 mg/ml after 24 hrs by disc diffusion method; format: functional, organism-based
[17] = system: Klebsiella aerogenes; assay: Antibacterial activity against Enterobacter aerogenes at 6.25 to 200 ug/ml after 24 hrs by microwell dilution method; format: functional, organism-based
[18] = system: Photorhabdus luminescens; assay: Antibacterial activity against Photorhabdus luminescens at 6.25 to 200 ug/ml after 24 hrs by microwell dilution method; format: functional, organism-based
[19] = system: Acinetobacter radioresistens; assay: Antibacterial activity against Acinetobacter radioresistens at 6.25 to 200 ug/ml after 24 hrs by microwell dilution method; format: functional, organism-based
[20] = system: Salmonella paratyphi; assay: Antibacterial activity against Salmonella paratyphi at 6.25 to 200 ug/ml after 24 hrs by microwell dilution method; format: functional, organism-based; settings: Salmonella enterica subsp. enterica serovar Paratyphi A
[21] = system: Klebsiella aerogenes; assay: Antibacterial activity against Enterobacter aerogenes at 10 mg/ml after 24 hrs by disc diffusion method; format: functional, organism-based
[22] = system: Acinetobacter radioresistens; assay: Antibacterial activity against Acinetobacter radioresistens at 10 mg/ml after 24 hrs by disc diffusion method; format: functional, organism-based
[23] = system: Salmonella paratyphi; assay: Antibacterial activity against Salmonella paratyphi at 10 mg/ml after 24 hrs by disc diffusion method; format: functional, organism-based; settings: Salmonella enterica subsp. enterica serovar Paratyphi A
[24] = system: Micrococcus lylae; assay: Antibacterial activity against Micrococcus lylae at 10 mg/ml after 24 hrs by disc diffusion method; format: functional, organism-based
[25] = system: Pseudomonas aeruginosa; assay: Antibacterial activity against Pseudomonas aeruginosa at 10 mg/ml after 24 hrs by disc diffusion method; format: functional, organism-based
[26] = system: Escherichia coli; assay: Antibacterial activity against Escherichia coli at 10 mg/ml after 24 hrs by disc diffusion method; format: functional, organism-based
[27] = system: Proteus vulgaris; assay: Antibacterial activity against Proteus vulgaris at 10 mg/ml after 24 hrs by disc diffusion method; format: functional, organism-based
[28] = system: Micrococcus luteus; assay: Antibacterial activity against Micrococcus luteus at 10 mg/ml after 24 hrs by disc diffusion method; format: functional, organism-based
[29] = system: Staphylococcus aureus; assay: Antibacterial activity against Staphylococcus aureus at 10 mg/ml after 24 hrs by disc diffusion method; format: functional
[30] = system: Staphylococcus cohnii; assay: Antibacterial activity against Staphylococcus cohnii at 10 mg/ml after 24 hrs by disc diffusion method; format: functional
[31] = system: Hepacivirus hominis; assay: Inhibition of HCV N-terminal His-tagged NS5B RNA dependent RNA polymerase expressed in Escherichia coli DH5alpha using poly rA/U12 as primer at 200 uM after 60 mins by liquid scintillation counting

Row | Structure (SMILES) | Activity [1] | Activity [2] | Activity [3] | Activity [4] | Activity [5] | Activity [6] | Activity [7] | Activity [8] | Activity [9] | Activity [10] | Activity [11] | Activity [12] | Activity [13] | Activity [14] | Activity [15] | Activity [16] | Activity [17] | Activity [18] | Activity [19] | Activity [20] | further results
1 | CC(C(=O)NN1C(=O)CSC1c1c(F)cccc1F)c1ccc(-c2ccccc2)c(F)c1 (stereo unspecified) | inactive | inactive | inactive | inactive | inactive | inactive | inactive | inactive | inactive | inactive | inactive | inactive | inactive | inactive | inactive | inactive | inactive | inactive | inactive | inactive | Activity [21]: inactive; Activity [22]: inactive; Activity [23]: inactive; Activity [24]: inactive; Activity [25]: inactive; Activity [26]: inactive; Activity [27]: inactive; Activity [28]: inactive; Activity [29]: inactive; Activity [30]: inactive; inhibition [31]: 8%
2 | CC(C(=O)NNC(=S)NCc1ccccc1)c1ccc(-c2ccccc2)c(F)c1 (stereo unspecified) | inactive | inactive | inactive | inactive | inactive | inactive | inactive | inactive | inactive | inactive | inactive | inactive | inactive | inactive | inactive | inactive | inactive | inactive | inactive | inactive | Activity [21]: inactive; Activity [22]: inactive; Activity [23]: inactive; Activity [24]: inactive; Activity [25]: inactive; Activity [26]: inactive; Activity [27]: inactive; Activity [28]: inactive; Activity [29]: inactive; Activity [30]: inactive; inhibition [31]: 8%
3 | CC(C(=O)N/N=C/c1cccc(F)c1)c1ccc(-c2ccccc2)c(F)c1 (stereo unspecified) | inactive | inactive | inactive | inactive | inactive | inactive | inactive | inactive | inactive | inactive | inactive | inactive | inactive | inactive | inactive | inactive | inactive | inactive | inactive | inactive | Activity [21]: inactive; Activity [22]: inactive; Activity [23]: inactive; Activity [24]: inactive; Activity [25]: inactive; Activity [26]: inactive; Activity [27]: inactive; Activity [28]: inactive; Activity [29]: inactive; Activity [30]: inactive; inhibition [31]: 8%
4 | CC(C(=O)N/N=C1\SCC(=O)N1Cc1ccccc1)c1ccc(-c2ccccc2)c(F)c1 (stereo unspecified) | inactive | inactive | inactive | inactive | inactive | inactive | inactive | inactive | inactive | inactive | inactive | inactive | inactive | inactive | inactive | inactive | inactive | inactive | inactive | inactive | Activity [21]: inactive; Activity [22]: inactive; Activity [23]: inactive; Activity [24]: inactive; Activity [25]: inactive; Activity [26]: inactive; Activity [27]: inactive; Activity [28]: inactive; Activity [29]: inactive; Activity [30]: inactive; inhibition [31]: 8%
5 | CC(C(=O)N/N=C/c1ccc(F)cc1)c1ccc(-c2ccccc2)c(F)c1 (stereo unspecified) | inactive | inactive | inactive | inactive | inactive | inactive | inactive | inactive | inactive | inactive | inactive | inactive | inactive | inactive | inactive | inactive | inactive | inactive | inactive | inactive | Activity [21]: inactive; Activity [22]: inactive; Activity [23]: inactive; Activity [24]: inactive; Activity [25]: inactive; Activity [26]: inactive; Activity [27]: inactive; Activity [28]: inactive; Activity [29]: inactive; Activity [30]: inactive; inhibition [31]: 8%
6 | CC(C(=O)N/N=C/c1ccccc1Cl)c1ccc(-c2ccccc2)c(F)c1 (stereo unspecified) | inactive | inactive | inactive | inactive | inactive | inactive | inactive | inactive | inactive | inactive | inactive | inactive | inactive | inactive | inactive | inactive | inactive | inactive | inactive | inactive | Activity [21]: inactive; Activity [22]: inactive; Activity [23]: inactive; Activity [24]: inactive; Activity [25]: inactive; Activity [26]: inactive; Activity [27]: inactive; Activity [28]: inactive; Activity [29]: inactive; Activity [30]: inactive; inhibition [31]: 8%
